Results on 15 compounds are retold here after US8063060B2, “R(−)-11-hydroxyaporphine derivatives and uses thereof” (The McLean Hospital Corporation, priority 2004, dated 2011).

The structures appear in SMILES notation. Structures can show the parent of a compound that is named as a salt. Where two headings read alike, the source gives them in different places.

One data set has as its target T1, human D2 receptor (Homo sapiens, UniProt P14416).
T1 construct: expressed in transfected cells
Description: Affinity at human D2 receptor in transfected cell membranes, tritium-labeled nemonapride. In kind it is binding. How it is done: (§1) Affinity data were obtained in cells transfected with human D1, D2, or D3 receptor cDNA. Cells were grown and harvested using standard procedures.

For another data set, the target named is dopamine D2 receptor (Rattus norvegicus, UniProt P61169). Description: Radioligand competition assay, D2 receptor, rat corpus striatum membranes, [3H]nemonapride. The data set is classed as binding. How it is done:
(§2) Affinity of N-alkyl R(−)-11-hydroxyaporphines (14, 4, 5, 15, 23, 24) and their esters (17-19) for the dopamine D1 and D2 receptors was determined by radioligand competition assays, using membrane preparations from dopamine-rich corpus striatum (caudatoputamen) tissue from rat forebrain. Adult male Sprague-Dawley rats were sacrificed by decapitation following carbon dioxide narcosis. Brains were quickly removed and dissected on ice. Tissue was homogenized in 50 mM Tris-HCl buffer (pH 7.4) containing 150 mM NaCl, washed twice and resuspended in the same buffer. For the D1 dopamine receptor assay, homogenate was incubated with 0.3 nM [^3H]SCH-23390 (Perkin Elmer; Boston, Mass.) for 30 minutes at 30° C. Non-specific binding was defined with 10 μM cis-flupenthixol. See Faedda et al., Biochem. Pharmacol. 38:473 (1989). For the D2 receptor assay, homogenate was incubated with […] [^3H]nemonapride (Perkin Elmer, Boston, Mass.) for 90 minutes at 30° C. Nonspecific binding was defined with 10 μM haloperidol. See Baldessarini et al., Mol. Pharmacol. 42:856 (1992). Experiments were carried out in triplicate.
In general terms: In a radioligand displacement assay an active substance lowers the binding of a labelled ligand.

The next data set concerns the target T2, dopamine D1 receptor (Rattus norvegicus, UniProt P18901).
T2 construct: membrane preparations from dopamine-rich corpus striatum (caudatoputamen) tissue from rat forebrain; from tissue; host or cells: corpus striatum (caudatoputamen) of adult male Sprague-Dawley rats
Description: Radioligand competition assay, D1 receptor, rat corpus striatum membranes, [3H]SCH-23390. In kind it is binding. How it is done: as §2

The next data set concerns the target T3, human D1 receptor (Homo sapiens, UniProt P21728).
T3 construct: expressed in transfected cells
Description: Affinity at human D1 receptor in transfected cell membranes, tritium-labeled SCH-23390. In kind it is binding. The procedure: as §1

In another data set the target is T4, human D3 receptor (Homo sapiens, UniProt P35462).
T4 construct: expressed in transfected cells
Description: Affinity at human D3 receptor in transfected cell membranes, tritium-labeled 7-OH-DPAT. In kind it is binding. The procedure:
as §1

In data set [1] the test system is adult male Sprague-Dawley rats. Description: Stimulation of motor activity (photobeam activity monitoring), in vivo potency and oral bioavailability. The arrangement: species or system rat. The note with it: for Induced motor activation, Response (total of electronically monitored locomotor responses, scored over time): relative to 4 μmol/kg i.p. R(−)-apomorphine = 1. The procedure:
In vivo potency and oral bioavailability of the aporphine derivatives were determined by measuring stimulation of motor activity in adult male Sprague-Dawley rats using a photobeam activity monitoring system (San Diego Instruments; San Diego, Calif.). See Zhang et al., Neuropsychopharmacology 25:624 (2001). The number of animal subjects in each experimental group ranged from 4 to 8. Oral delivery of test agents was achieved using a permanently surgically pre-implanted polyethylene gastric tube to avoid stress associated with conventional oral intubation. For this surgery, rates were anesthetized with 60 mg/kg sodium pentobarbital intraperitoneally. PE50 tubing was inserted and sutured to the stomach, and led subcutaneously to a point of access on the back of the neck, where it was sutured in place. Animals were allowed two weeks to recover prior to behavior testing.

The conditions of data set [2]: following a single dose; cited from earlier work.
The mark [3] stands for this setting: rat striatal membranes, [3H]nemonapride, 90 minutes at 30° C, read-out: Affinity at rat dopamine receptors, D2.
The mark [4] stands for this setting: transfected cell membranes, read-out: Affinity at human receptors, D2.
Setting [5] is: rat striatal membranes, 0.3 nM [3H]SCH-23390, 30 minutes at 30° C, read-out: Affinity at rat dopamine receptors, D1.
[6] abbreviates: transfected cell membranes, read-out: Affinity at human receptors, D1.
The mark [7] stands for this setting: transfected cell membranes, read-out: Affinity at human receptors, D3.

T4 sequence (P35462 whole entry): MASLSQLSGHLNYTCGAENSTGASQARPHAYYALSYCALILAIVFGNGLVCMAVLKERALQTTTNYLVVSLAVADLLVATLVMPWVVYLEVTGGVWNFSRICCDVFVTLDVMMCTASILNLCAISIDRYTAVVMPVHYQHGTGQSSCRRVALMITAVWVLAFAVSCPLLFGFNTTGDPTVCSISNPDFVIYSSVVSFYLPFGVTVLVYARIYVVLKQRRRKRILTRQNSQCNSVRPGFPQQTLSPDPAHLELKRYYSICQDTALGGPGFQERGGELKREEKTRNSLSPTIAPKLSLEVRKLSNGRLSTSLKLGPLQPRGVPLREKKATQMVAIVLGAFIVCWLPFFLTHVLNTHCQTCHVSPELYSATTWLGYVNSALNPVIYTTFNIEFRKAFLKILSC
T3 sequence (P21728 whole entry): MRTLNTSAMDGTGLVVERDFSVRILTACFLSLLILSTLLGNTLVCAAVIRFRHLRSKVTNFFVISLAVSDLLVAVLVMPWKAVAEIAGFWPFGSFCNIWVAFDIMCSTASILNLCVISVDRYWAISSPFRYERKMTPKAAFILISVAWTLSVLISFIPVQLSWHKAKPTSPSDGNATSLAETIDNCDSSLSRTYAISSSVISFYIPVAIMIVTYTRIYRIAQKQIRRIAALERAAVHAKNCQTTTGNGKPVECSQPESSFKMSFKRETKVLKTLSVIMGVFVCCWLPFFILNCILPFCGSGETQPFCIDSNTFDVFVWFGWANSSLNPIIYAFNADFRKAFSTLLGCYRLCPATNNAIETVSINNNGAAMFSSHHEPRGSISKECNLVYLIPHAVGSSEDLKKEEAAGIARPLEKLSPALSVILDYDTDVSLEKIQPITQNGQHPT
dopamine D2 receptor, sequence (P61169 1-415 isoform P61169-2): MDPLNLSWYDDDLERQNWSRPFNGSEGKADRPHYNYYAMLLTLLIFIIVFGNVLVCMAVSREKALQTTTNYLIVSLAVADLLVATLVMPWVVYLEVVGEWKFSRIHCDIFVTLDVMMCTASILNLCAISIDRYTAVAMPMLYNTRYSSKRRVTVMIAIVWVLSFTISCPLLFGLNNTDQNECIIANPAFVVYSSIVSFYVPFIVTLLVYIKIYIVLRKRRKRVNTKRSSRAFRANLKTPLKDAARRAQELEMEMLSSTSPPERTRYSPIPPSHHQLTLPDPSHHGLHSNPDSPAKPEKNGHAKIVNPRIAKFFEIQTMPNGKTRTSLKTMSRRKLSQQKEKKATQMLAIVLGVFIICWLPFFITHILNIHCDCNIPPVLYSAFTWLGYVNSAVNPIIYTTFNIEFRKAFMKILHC
T2 sequence (P18901 whole entry): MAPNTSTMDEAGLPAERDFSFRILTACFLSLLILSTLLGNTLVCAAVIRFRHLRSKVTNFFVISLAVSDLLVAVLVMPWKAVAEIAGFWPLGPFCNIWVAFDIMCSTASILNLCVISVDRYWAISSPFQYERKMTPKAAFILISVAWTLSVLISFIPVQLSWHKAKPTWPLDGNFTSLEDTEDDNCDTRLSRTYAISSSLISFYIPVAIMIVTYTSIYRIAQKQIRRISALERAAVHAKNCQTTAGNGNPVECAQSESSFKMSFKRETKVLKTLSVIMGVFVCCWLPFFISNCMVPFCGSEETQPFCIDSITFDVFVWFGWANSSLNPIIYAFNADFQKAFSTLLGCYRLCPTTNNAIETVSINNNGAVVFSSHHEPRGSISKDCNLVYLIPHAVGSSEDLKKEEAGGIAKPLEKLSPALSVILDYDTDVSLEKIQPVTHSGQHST
T1 sequence (P14416 whole entry): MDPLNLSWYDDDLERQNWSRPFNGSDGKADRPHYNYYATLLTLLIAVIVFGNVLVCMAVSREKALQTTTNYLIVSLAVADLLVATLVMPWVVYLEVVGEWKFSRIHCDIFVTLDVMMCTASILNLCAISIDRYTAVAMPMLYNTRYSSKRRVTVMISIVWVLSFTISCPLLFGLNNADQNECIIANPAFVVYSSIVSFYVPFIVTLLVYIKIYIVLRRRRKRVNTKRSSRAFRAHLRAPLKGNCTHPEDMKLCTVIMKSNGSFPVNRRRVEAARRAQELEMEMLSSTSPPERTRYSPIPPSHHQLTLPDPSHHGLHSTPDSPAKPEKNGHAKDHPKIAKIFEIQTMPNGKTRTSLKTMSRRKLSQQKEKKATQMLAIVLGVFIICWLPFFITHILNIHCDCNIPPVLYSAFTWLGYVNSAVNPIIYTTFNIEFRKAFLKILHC

As for `CCN1CCc2cccc3c2[C@H]1Cc1cccc(O)c1-3` (as salt: hydrochloride) [Compound 14, R(−)—N-ethyl-11-hydroxynoraporphine], the melting point (commonly the temperature, or range, at which the solid turns liquid) amounted to 250 °C.

As for `C=CCN1CCc2cccc3c2[C@H]1Cc1cccc(O)c1-3` [Compound 5, R(−)-N-allyl-11-hydroxynoraporphine], the Ki at human D2 receptor stood at 113 ± 17 nM; at dopamine D2 receptor, 41.1 ± 11 nM; at dopamine D1 receptor, 397 ± 51 nM; at human D1 receptor it was 944 ± 149 nM.

On to `CCCN1CCc2cc(F)cc3c2[C@H]1Cc1cccc(O)c1-3` [Compound 23, R(−)-2-fluoro-N-propyl-11-hydroxynoraporphine], for which the Ki at dopamine D2 receptor (setting [3]) worked out at 203 ± 37 nM; on dopamine D1 receptor, 12.6 ± 0.6 nM.

Turning to `CCCN1CCc2cc(F)cc3c2[C@H]1Cc1ccc(O)c(O)c1-3` [Compound 22, R(−)-2-fluoro-N-n-propylnorapomorphine, reference compound], the Ki on human D2 receptor (setting [4]) was found to be 46 ± 2.6 nM; at dopamine D2 receptor (setting [3]) it was 17.2 ± 1.2 nM; on dopamine D1 receptor (setting [5]) it was 618 ± 133 nM; on human D1 receptor (setting [6]), 414 ± 30 nM; on human D3 receptor (setting [7]), 2.49 ± 0.18 nM.

`CCCN1CCc2cccc3c2[C@H]1Cc1ccc(O)c(O)c1-3` [Compound 2, R(−)-N-propylnorapomorphine, reference compound]: the “Induced motor activation, Response (total of electronically monitored locomotor responses, scored over time)” value is listed as 0 in data set [1] (4 μmol/kg, gastric); 12 in data set [1] (4 μmol/kg, peritoneal); 68 in data set [1] (20 μmol/kg, gastric). The “Induced motor activation, Duration” value was 8 h in data set [1] (4 μmol/kg, peritoneal) and 14 h in data set [1] (20 μmol/kg, gastric). Moreover, the Ki on human D3 receptor (setting [7]) came out at 0.51 ± 0.07 nM.

As to `C=CCN1CCc2cccc3c2[C@H]1Cc1cccc(O)c1-3` (as salt: hydrochloride) [Compound 5, R(−)-N-allyl-11-hydroxynoraporphine], the melting point fell in the range of 186 to 190 °C.

With `CCN1CCc2cccc3c2[C@H]1Cc1cccc(O)c1-3` [Compound 14, R(−)—N-ethyl-11-hydroxynoraporphine], the Ki worked out at 283 ± 53 nM at human D2 receptor (setting [4]); 88 ± 15.5 nM on dopamine D2 receptor; 177 ± 13 nM on dopamine D1 receptor (setting [5]); 362 ± 38 nM at human D1 receptor (setting [6]); 36.7 ± 4 nM on human D3 receptor. Moreover, the “Induced motor activation, Response (total of electronically monitored locomotor responses, scored over time)” value in data set [1] (4 μmol/kg, gastric) amounted to 0; in data set [1] (4 μmol/kg, peritoneal), 12; in data set [1] (20 μmol/kg, gastric) it was 0. For the same compound, the “Induced motor activation, Duration” value in data set [1] (4 μmol/kg, peritoneal) came out at 4 h.

With `CN1CCc2cccc3c2[C@H]1Cc1cccc(O)c1-3` [Compound 3, R(−)-11-OH-aporphine, reference compound], the values for the Ki at dopamine D2 receptor (setting [3]) and at dopamine D1 receptor (setting [5]) were 108 ± 10.8 nM and 26.5 ± 1.03 nM, respectively.

On to `Oc1cccc2c1-c1cccc3c1[C@@H](C2)N(CC1CC1)CC3` [Compound 15, R(−)-N-cyclopropylmethyl-11-hydroxynoraporphine], for which the Ki on human D2 receptor (setting [4]) turned out to be 436 ± 39 nM; on dopamine D2 receptor it was 96.3 ± 15.8 nM; at dopamine D1 receptor (setting [5]) it was 272 ± 18 nM; at human D3 receptor, 30.1 ± 3.5 nM.

As for `CCCN1CCc2cccc3c2[C@H]1Cc1cccc(O)c1-3` [Compound 4, R(−)—N-propyl-11-hydroxynoraporphine], the “Induced motor activation, Response (total of electronically monitored locomotor responses, scored over time)” value in data set [1] (4 μmol/kg, gastric) turned out to be 0; in data set [1] (4 μmol/kg, peritoneal), 24; in data set [1] (20 μmol/kg, gastric) it was 76. For the same compound, the “Induced motor activation, Duration” value in data set [1] (4 μmol/kg, peritoneal) was determined as 8 h; in data set [1] (20 μmol/kg, gastric) it was 18 h. Also, the results for the Ki at human D1 receptor and at human D3 receptor were 1280 ± 209 nM and 4.89 ± 1.06 nM, respectively.

For the compound `CC/C=C\C/C=C\C/C=C\C/C=C\C/C=C\C/C=C\CCC(=O)Oc1cccc2c1-c1cccc3c1[C@@H](C2)N(CCC)CC3` [Compound 17, R(−)-11-O-docosahexaenoyl-N-propyl-noraporphine], the “Induced motor activation, Response (total of electronically monitored locomotor responses, scored over time)” value in data set [1] (4 μmol/kg, cutaneous) is given as 0; in data set [1] (4 μmol/kg, gastric), 0; in data set [1] (20 μmol/kg, cutaneous), 5; in data set [1] (20 μmol/kg, gastric), 75. Besides, the “Induced motor activation, Duration” value in data set [1] (20 μmol/kg, cutaneous) was determined as 6 h; in data set [1] (20 μmol/kg, gastric) it was 12 h.

Consider `CN1CCc2cc(O)cc3c2[C@H]1Cc1cccc(O)c1-3` [Compound 24, R(−)-2,11-dihydroxyaporphine], for which the Ki on dopamine D2 receptor came to 86 ± 14.2 nM; on dopamine D1 receptor (setting [5]) it was 122 ± 8 nM.

Consider `CN1CCc2cccc3c2[C@H]1Cc1ccc(O)c(O)c1-3` [Compound 1, R(−)-apomorphine], for which, in data set [2], the “effects last for” value was 40 to 60 min and the onset of action was 5 to 15 min.

Turning to `CCCCC(=O)Oc1cccc2c1-c1cccc3c1[C@@H](C2)N(CCC)CC3` [Compound 18, R(−)-11-O-valeryl-N-propyl-noraporphine], the “Induced motor activation, Response (total of electronically monitored locomotor responses, scored over time)” value was determined as 0 in data set [1] (4 μmol/kg, gastric); 53 in data set [1] (4 μmol/kg, peritoneal); 99 in data set [1] (20 μmol/kg, gastric). Also, the “Induced motor activation, Duration” value in data set [1] (4 μmol/kg, peritoneal) was found to be 12 h; in data set [1] (20 μmol/kg, gastric), 14 h. Moreover, the Ki at dopamine D2 receptor (read-out: Affinity at rat dopamine receptors, D2) turned out to be 340 ± 65 nM.

Turning to `CCCN1CCc2cccc3c2[C@H]1Cc1cccc(OC(C)=O)c1-3` [Compound 19, R(−)-11-O-acetyl-N-propyl-noraporphine], the “Induced motor activation, Response (total of electronically monitored locomotor responses, scored over time)” value in data set [1] (4 μmol/kg, gastric) stood at 0; in data set [1] (4 μmol/kg, peritoneal), 12; in data set [1] (20 μmol/kg, gastric), 168. In addition, the “Induced motor activation, Duration” value in data set [1] (4 μmol/kg, peritoneal) is 8 h; in data set [1] (20 μmol/kg, gastric) it was 16 h. For the same compound, the Ki at dopamine D2 receptor (setting [3]) was found to be 72.3 ± 6.8 nM.
